Laboratory results published in patent US20250281462A1, “THERAPEUTICALLY EFFECTIVE ORAL ADMINISTRATION OF A 2 ARYLBENZIMIDAZOLE” (Tranquis Therapeutics, Inc., priority 2021, published 2025).
Several values for one entry are separate records, joined by “and”; a condition that tells them apart may be missing. Identical values can stand only once.

Tests used:
clinical = conditions: male, human, in vivo, po; for half-life: T1/2
[1] = Plasma concentrations of TQS-168 and TQS-621 after single oral dose 50 mg/kg in mice, three formulations; type: in vivo; conditions: mice plasma, TQS-168 50 mg/kg p.o.
Experimental: In a second experiment, mice were administered 50 mg/kg TQS-168 by oral gavage. For Group 1, TQS-168 was prepared at a concentration of 5.0 mg/mL in a suspension with […] in PBS. For Group 2, TQS-168 was prepared at a concentration of 5.0 mg/mL as a solution in 10 polyethylene glycol (PEG) 400|30 Kleptose (Roquete)|60% water.
Plasma exposures for Group 1 mice (ng/mL) are presented in Table 2 and for Group 2 mice in Table 3.
C57BL/6 male mice were administered a single dose of TQS-168 at 50 mg/kg using one of three formulations: Group 1-5.0 mg/ml suspension in 0.5% methylcellulose in PBS; Group 2-5.0 mg/ml solution in PEG400 (Fluka) 10%|Kleptose (Roquette) 30%|sterile water 60%; Group 3-5.0 mg/ml suspension in Labrafil M 1944 CS (Gattefosse) 30%|Masine CC (Gattefosse) 5%|Miglyol 812N 10%|sterile water 55%.
Plasma concentrations of TQS-168 and TQS-621 were measured overtime.

[2] = Plasma and brain concentrations after single oral dose 45 mg/kg in mice; type: in vivo; conditions: TQS-168 45 mg/kg p.o.
Experimental: Mice were administered a single oral dose of 45 mg/kg TQS-168. TQS-168 was prepared at a concentration of 5.0 mg/mL as a solution in 10% polyethylene glycol (PEG) 400|130% Kleptose (Roquette) 60% water.
Concentrations in plasma and in brain were measured at various timepoints and various pharmacokinetic parameters were calculated, as shown below in Tables 4 and 5 and in FIGS. 19A and 19B.
TQS-168 was prepared as a 4.5 mg/ml solution in PEG400 10%| Kleptose 30% sterile water 60%. A single oral dose of 45 mg/kg was administered. Concentrations of TQS-621 were measured in plasma and brain over time.

[3] = male, C57BL/6, mouse, plasma, po, 50 mg/kg, Group 1 (suspension, 0.5% methylcellulose in PBS), mean
[4] = male, C57BL/6, mouse, plasma, po, 50 mg/kg, Group 2 (solution, PEG400/Kleptose/water), individual mouse
[5] = male, C57BL/6, mouse, plasma, po, 50 mg/kg, Group 2 (solution, PEG400/Kleptose/water), mean
[6] = male, C57BL/6, mouse, plasma, po, 50 mg/kg, Group 3 (suspension, Labrafil/Masine/Miglyol/water), individual mouse
[7] = male, C57BL/6, mouse, plasma, po, 50 mg/kg, Group 3 (suspension, Labrafil/Masine/Miglyol/water), mean
[8] = Group 1 (suspension, 0.5% methylcellulose in PBS), individual mouse
[9] = Group 2 (solution, PEG400/Kleptose/water), individual mouse
[10] = Group 2 (solution, PEG400/Kleptose/water), mean
[11] = Group 3 (suspension, Labrafil/Masine/Miglyol/water), individual mouse
[12] = mouse, po, mice brain, solution PEG 400/Kleptose/water
[13] = mouse, po, mice plasma, solution PEG 400/Kleptose/water

AUC(0-t) (clinical; 60 mg, AUC(0-24)): 383 ng·h/mL
AUC(0-inf) (clinical; 60 mg): 410 ng·h/mL
AUC(0-t) (clinical; 60 mg, AUC(0-last)): 401 ng·h/mL
Cmax (clinical; 60 mg): 65.3 ng/mL and 250 nM
half-life (clinical; 60 mg): 4.89 h
Tmax (clinical; 60 mg): 2.5 h
AUC(0-t) (clinical; 90 mg, AUC(0-24)): 1170 ng·h/mL
AUC(0-inf) (clinical; 90 mg): 1200 ng·h/mL
Cmax (clinical; 90 mg): 214 ng/mL and 800 nM
half-life (clinical; 180 mg): 9.1 h
Tmax (clinical; 180 mg): 1.5 h
AUC(0-t) (clinical; 270 mg, AUC(0-24)): 4250 ng·h/mL
AUC(0-inf) (clinical; 270 mg): 4950 ng·h/mL
AUC(0-t) (clinical; 270 mg, AUC(0-last)): 4760 ng·h/mL
Cmax (clinical; 270 mg): 2330 nM
half-life (clinical; 270 mg): 10.4 h
Tmax (clinical; 270 mg): 2 h
AUC(0-t) (clinical; 540 mg, AUC(0-24)): 10800 ng·h/mL
AUC(0-inf) (clinical; 540 mg): 12700 ng·h/mL
AUC(0-t) (clinical; 540 mg, AUC(0-last)): 12000 ng·h/mL
Cmax (clinical; 540 mg): 1110 ng/mL and 4.17 µM
half-life (clinical; 540 mg): 11.3 h
Tmax (clinical; 540 mg): 4 h
Cmax ([1]; male, C57BL/6, mouse, plasma, po, 50 mg/kg, Group 1 (suspension, 0.5% methylcellulose in PBS), individual mouse, read-out: Cmax): 239 ng/mL
Tmax ([1]; male, C57BL/6, mouse, plasma, po, 50 mg/kg, Group 1 (suspension, 0.5% methylcellulose in PBS), individual mouse, read-out: tmax): 1 h
AUC(0-inf) [1, 3]: 8200 ng·h/mL
AUC(0-t) [1, 3]: 1590 ng·h/mL
half-life [1, 3]: 28.3 h
Cmax ([1]; male, C57BL/6, mouse, plasma, po, 50 mg/kg, Group 1 (suspension, 0.5% methylcellulose in PBS), mean, read-out: Cmax): 235 ng/mL
Tmax ([1]; male, C57BL/6, mouse, plasma, po, 50 mg/kg, Group 1 (suspension, 0.5% methylcellulose in PBS), mean, read-out: tmax): 1.33 h
AUC(0-inf) [1, 4]: 3110 ng·h/mL
AUC(0-t) [1, 4]: 2880 ng·h/mL
half-life [1, 4]: 2.92 h
Cmax ([1]; male, C57BL/6, mouse, plasma, po, 50 mg/kg, Group 2 (solution, PEG400/Kleptose/water), individual mouse, read-out: Cmax): 487 ng/mL
Tmax ([1]; male, C57BL/6, mouse, plasma, po, 50 mg/kg, Group 2 (solution, PEG400/Kleptose/water), individual mouse, read-out: tmax): 2 h
AUC(0-inf) [1, 5]: 2960 ng·h/mL
AUC(0-t) [1, 5]: 2750 ng·h/mL
half-life [1, 5]: 2.9 h
Cmax ([1]; male, C57BL/6, mouse, plasma, po, 50 mg/kg, Group 2 (solution, PEG400/Kleptose/water), mean, read-out: Cmax): 449 ng/mL
Tmax ([1]; male, C57BL/6, mouse, plasma, po, 50 mg/kg, Group 2 (solution, PEG400/Kleptose/water), mean, read-out: tmax): 1.67 h
AUC(0-inf) [1, 6]: 612 ng·h/mL
AUC(0-t) [1, 6]: 564 ng·h/mL
Cmax ([1]; male, C57BL/6, mouse, plasma, po, 50 mg/kg, Group 3 (suspension, Labrafil/Masine/Miglyol/water), individual mouse, read-out: Cmax): 98.9 ng/mL
AUC(0-inf) [1, 7]: 584 ng·h/mL
AUC(0-t) [1, 7]: 533 ng·h/mL
half-life [1, 7]: 2.58 h
Cmax ([1]; male, C57BL/6, mouse, plasma, po, 50 mg/kg, Group 3 (suspension, Labrafil/Masine/Miglyol/water), mean, read-out: Cmax): 92 ng/mL
Tmax ([1]; male, C57BL/6, mouse, plasma, po, 50 mg/kg, Group 3 (suspension, Labrafil/Masine/Miglyol/water), mean, read-out: tmax): 3.33 h
Cmax [1, 8]: 309 ng/mL and 156 ng/mL
t1/2 [1, 8]: 1.88 h and 80.8 h and 2.08 h
AUCInf [1, 9]: 2962 ng·h/mL and 2817 ng·h/mL
AUClast [1, 9]: 2862 ng·h/mL and 2513 ng·h/mL
Cmax [1, 9]: 483 ng/mL and 378 ng/mL
t1/2 [1, 9]: 2.17 h and 3.61 h
AUClast Ratio (Metabolite/Parent) [1, 10]: 0.256
Cmax Ratio (Metabolite/Parent) [1, 10]: 0.211
AUCInf [1, 11]: 621 ng·h/mL and 519 ng·h/mL
AUClast [1, 11]: 532 ng·h/mL and 504 ng·h/mL
Cmax [1, 11]: 117 ng/mL and 58.7 ng/mL
Tmax [1, 11]: 8 h
t1/2 [1, 11]: 3.43 h and 2.93 h and 1.38 h
AUClast Ratio (Metabolites/Parent) ([2]; mice brain, solution): 0.172
Cmax Ratio (Metabolite/Parent) ([2]; mice brain, solution): 0.159
AUCInf ([2]; mice brain, solution PEG 400/Kleptose/water): 4282 ng·h/g
AUClast ([2]; mice brain, solution PEG 400/Kleptose/water, last time point 24 hr): 4234 ng·h/g
Cmax [2, 12]: 678 ng/g
Tmax [2, 12]: 4 h
half-life [2, 12]: 4.85 h
AUC(0-inf) [2, 13]: 4310 ng·h/mL
Cmax [2, 13]: 692 ng/mL
Tmax [2, 13]: 4 h
AUC(0-t) ([2]; mouse, po, mice plasma, solution PEG 400/Kleptose/water, last time point 24 hr): 4280 ng·h/mL
Structure (SMILES): CC(C)(C)c1ccc(-c2nc3cc(O)ccc3[nH]2)cc1 [TQS-621]
AUCInf [1, 8]: 1163 ng·h/mL and 22064 ng·h/mL and 1379 ng·h/mL
AUClast [1, 8]: 1148 ng·h/mL and 2355 ng·h/mL and 1267 ng·h/mL
